Data reported in publication PMC5913127 (Scientific Reports, 2018).

Legend:
[1] = test system: aducanumab; assay: ELISA of aducanumab on plates coated with truncated Aβ peptides; assay type: binding, human; settings: for EC50: aducanumab on peptide coated or captured at 5 μg/mL (multivalent effects), antibody from 100 nM, 2 h room temperature, read-out: Binding activity (EC50); for Fold reduction (relative to Aβ1-42): reduction of aducanumab binding affinity, peptide 5 μg/mL
Experimental: For N-terminally truncated Aβ peptides, untagged peptides were used. For ELISA, 96-well microplates were coated with 5 μg/mL peptide in Coating Buffer (15 mM Na2CO3, 35 mM NaHCO3, pH 9.6) overnight at 4 °C. Plates were washed and non-specific binding sites were blocked with 2% BSA in PBS for 1 h at 25 °C. Serially diluted antibody starting from 100 nM in Assay Buffer (2% BSA in PBS) was added, and the plates were incubated for 2 h at room temperature. Binding was determined by incubation with an HRP-conjugated goat anti-human polyclonal antibody (Jackson ImmunoResearch) followed by measurement of HRP activity using Ultra TMB ELISA Colorimetric Substrate Solution (Thermo Fisher Scientific). For C-terminally truncated Aβ peptides, biotin-conjugated peptides were used. The biotin was attached synthetically to the C terminus of the protein by incorporation of a non-native lysine residue. For ELISA, biotin-conjugated peptides were incubated for 1 h at room temperature, at a concentration of 5 μg/mL in Assay Buffer, using plates that were pre-coated with neutravidin (Thermo Fisher Scientific, Reacti-Bind plates). Plates were washed, antibodies diluted serially in Assay Buffer were added, and binding was measured as described above.

[2] = test system: Aβ (Monomer, Aggregate); settings: A = aggregate, M = monomer; ref [9]–[19],[54] as given per antibody in column Ref. of Table 1; cited from earlier work

EC50 [1] [nM]	Substance	Fold reduction (relative to Aβ1-42) [1] [fold]	Fold reduction (relative to Aβ1-42) ([1]; listed as Aβ5-42) [fold]	Aβ selectivity (Monomer, Aggregate) [2]
36	5–42: untagged N-terminally truncated Aβ peptide	96	> 40	
140	6–42: untagged N-terminally truncated Aβ peptide	390		
150	8–42: untagged N-terminally truncated Aβ peptide	400		
	solanezumab: anti-Aβ clinical candidate antibody; mouse analog m266			M ≫ A
